In ChEMBL document CHEMBL4725390, “Asymmetrically Substituted Quadruplex-Binding Naphthalene Diimide Showing Potent Activity in Pancreatic Cancer Models” (ACS Med Chem Lett, 2020):
Activity calls are given as the source filed them. The rule behind the calls is not given here.

How the values were obtained:
MIA PaCa-2 [1] = assay: Antitumor activity against human MIAPaCa2 cells xenografted in mouse assessed as mean tumor volume at 1 mg/kg, iv administered once per week for 28 days and measured at day 53 by Caliper method (reference value: 1.60 +/- 0.44 cm3); type: functional; conditions: time 28 day
[2] = Toxicity in mouse xenografted with human MIAPaCa2 cells assessed as effect on neuronal clinical signs at 1 mg/kg, iv administered twice per week for 28 days; type: organism-based; conditions: in vivo, 672 h, time 28 day
PANC-1 [3] = assay: Potency index, ratio of 2,7-bis(3-morpholinopropyl)-4-((2-(pyrrolidin-1-yl)ethyl)amino)benzo[lmn][3,8]phenanthroline-1,3,6,8(2H,7H)-tetraone IC50 to test compound IC50 for human PANC1 cells measured after 96 hrs by SRB assay; type: functional
MIA PaCa-2 [4] = assay: Downregulation of NF-kappaB signalling pathway related gene expression in human MIAPaCa2 cells at 40 nM after 6 hrs by RNA sequencing analysis; type: functional, cell-based
[5] = Downregulation of APC2 mRNA expression in human MIAPaCa2 cells at 40 nM after 24 hrs by RNA sequencing analysis relative to control; type: functional, MIA PaCa-2
CAPAN-1 = assay: Antiproliferative activity against human Capan1 cells assessed as growth inhibition after 96 hrs by SRB assay; type: functional
MIA PaCa-2 [6] = assay: Downregulation of hippo signaling pathway related gene expression in human MIAPaCa2 cells at 40 nM after 6 hrs by RNA sequencing analysis; type: functional, cell-based
MIA PaCa-2 [7] = assay: Antitumor activity against human MIAPaCa2 cells xenografted in mouse assessed as change in tumor volume at 15 mg/kg, iv administered twice per week for 28 days and measured at day 53 by Caliper method relative to control; type: functional; conditions: time 28 day
MIA PaCa-2 [8] = assay: Downregulation of TNF signaling pathway related gene expression in human MIAPaCa2 cells at 40 nM after 6 hrs by RNA sequencing analysis; type: functional, cell-based
[9] = Downregulation of APC2 mRNA expression in human MIAPaCa2 cells at 40 nM after 6 hrs by RNA sequencing analysis relative to control; type: functional, MIA PaCa-2
Mus musculus [10] = assay: Up regulation of cleaved PARP protein expression in mouse xenografted with human MIAPaCa2 cells at 1 mg/kg, iv administered twice per week for 28 days measured on day 28 by Western blot analysis; type: functional, organism-based; conditions: time 28.0 day
[11] = Downregulation of DVL1 mRNA expression in human MIAPaCa2 cells at 40 nM after 6 hrs by RNA sequencing analysis relative to control; type: functional, MIA PaCa-2
Mus musculus [12] = assay: Up regulation of cleaved PARP protein expression in mouse xenografted with human MIAPaCa2 cells at 1 mg/kg, iv administered once per week for 28 days measured on day 28 by Western blot analysis; type: functional, organism-based; conditions: time 28.0 day
MIA PaCa-2 [13] = assay: Downregulation of Rap1 signaling pathway related gene expression in human MIAPaCa2 cells at 40 nM after 6 hrs by RNA sequencing analysis; type: functional, cell-based
[14] = Downregulation of WNT5B mRNA expression in human MIAPaCa2 cells at 40 nM after 6 hrs by RNA sequencing analysis relative to control; type: functional, MIA PaCa-2
[15] = Antitumor activity in KPC-induced PDAC mouse model expressing active KRASG12D and mutant p53R172H assessed as median survival time at 1 mg/kg, iv administered once per week up to 3 weeks (reference value: 12 days); type: functional
[16] = AUC (infinity) in mouse xenografted with human MIAPaCa2 cells at 0.96 mg/kg, iv administered as single dose; type: ADME, organism-based; set-up: time infinity, route intravenous, dose 0.96 mg/kg; conditions: in vivo
[17] = Downregulation of AXIN1 mRNA expression in human MIAPaCa2 cells at 40 nM after 24 hrs by RNA sequencing analysis relative to control; type: functional, MIA PaCa-2
Quadruplex DNA [18] = assay: Binding affinity to G4 quadruplex DNA in human PANC1 cells assessed as BG4 foci formation at 400 to 800 nM after 24 hrs by immunofluorescence based confocal microscopic analysis; type: cell-based; conditions: PANC-1, dose nM 400-800, time 24.0 hrs
MIA PaCa-2 [19] = assay: Antitumor activity against human MIAPaCa2 cells xenografted in mouse assessed as change in tumor volume at 1 mg/kg, iv administered once per week for 28 days and measured at day 28 by Caliper method relative to control; type: functional; conditions: time 28 day
MIA PaCa-2 [20] = assay: Downregulation of Wnt signaling pathway related gene expression in human MIAPaCa2 cells at 40 nM after 6 hrs by RNA sequencing analysis; type: functional, cell-based
Mus musculus [21] = assay: Effect on hTERT expression in mouse xenografted with human MIAPaCa2 cells at 1 mg/kg, iv administered once per week for 28 days and measured on day 28 by Western blot analysis; type: functional, organism-based; conditions: time 28.0 day
[22] = Toxicity in mouse xenografted with human MIAPaCa2 cells assessed as effect on cardiac clinical signs at 1 mg/kg, iv administered once per week for 28 days; type: organism-based; conditions: in vivo, 672 h, time 28 day
[23] = Clearance in mouse xenografted with human MIAPaCa2 cells at 0.96 mg/kg, iv administered as single dose; type: ADME, organism-based; conditions: in vivo
MIA PaCa-2 [24] = assay: Antitumor activity against human MIAPaCa2 cells xenografted in mouse assessed as change in tumor volume at 1 mg/kg, iv administered twice per week for 28 days and measured at day 28 by Caliper method relative to control; type: functional; conditions: time 28 day
PANC-1 [25] = assay: Antiproliferative activity against human PANC1 cells assessed as growth inhibition after 96 hrs by SRB assay; type: functional
[26] = Downregulation of WNT5B mRNA expression in human MIAPaCa2 cells at 40 nM after 24 hrs by RNA sequencing analysis relative to control; type: functional, MIA PaCa-2
[27] = Downregulation of MAPK11 mRNA expression in human MIAPaCa2 cells at 40 nM after 6 hrs by RNA sequencing analysis relative to control; type: functional, MIA PaCa-2
[28] = AUC in mouse xenografted with human MIAPaCa2 cells at 0.96 mg/kg, iv administered as single dose; type: ADME, organism-based; set-up: dose 0.96 mg/kg; conditions: in vivo
[29] = Toxicity in mouse xenografted with human MIAPaCa2 cells assessed as drug tolerability at 1 mg/kg, iv administered twice per week for 28 days; type: organism-based; conditions: in vivo, 672 h, time 28 day
Quadruplex DNA [30] = assay: Binding affinity to G4 quadruplex DNA in human PANC1 cells assessed as BG4 foci formation at 800 nM after 6 hrs by immunofluorescence based confocal microscopic analysis; type: cell-based; conditions: PANC-1
[31] = Downregulation of Bcl2 mRNA expression in human MIAPaCa2 cells at 40 nM after 6 hrs by RNA sequencing analysis relative to control; type: functional, MIA PaCa-2
[32] = Toxicity in mouse xenografted with human MIAPaCa2 cells assessed as drug tolerability at 1 mg/kg, iv administered once per week for 28 days; type: organism-based; conditions: in vivo, 672 h, time 28 day
[33] = Downregulation of Bcl2 mRNA expression in human MIAPaCa2 cells at 40 nM after 24 hrs by RNA sequencing analysis relative to control; type: functional, MIA PaCa-2
[34] = Downregulation of hTERT mRNA expression in human MIAPaCa2 cells at 40 nM after 6 hrs by RNA sequencing analysis relative to control; type: functional, MIA PaCa-2
[35] = Half life in mouse xenografted with human MIAPaCa2 cells at 0.96 mg/kg, iv administered as single dose; type: ADME, organism-based; conditions: in vivo
[36] = Downregulation of hTERT mRNA expression in human MIAPaCa2 cells at 40 nM after 24 hrs by RNA sequencing analysis relative to control; type: functional, MIA PaCa-2

SMILES: O=C1c2cc(-c3ccc(CN4CCCC4)cc3)c3c4c(cc(NCCN5CCCC5)c(c24)C(=O)N1CCCN1CCOCC1)C(=O)N(CCCN1CCOCC1)C3=O [QN-302]
- Activity (MIA PaCa-2 [1]): 0.17 cm3
- Activity [2]: Non-Toxic
- Ratio IC50 (PANC-1 [3]): 10
- inhibition (MIA PaCa-2 [4]): Active
- log2FC [5]: 1.06
- GI50 (CAPAN-1): 5.9 nM
- inhibition (MIA PaCa-2 [6]): Active
- Activity (MIA PaCa-2 [7]): -78.1%
- inhibition (MIA PaCa-2 [8]): Active
- log2FC [9]: 1.88
- Activity (Mus musculus [10]): Active
- log2FC [11]: 1.48
- Activity (Mus musculus [12]): Active
- inhibition (MIA PaCa-2 [13]): Active
- log2FC [14]: 2.25
- MST [15]: 24 days
- AUC(0-inf) [16]: 8270 ng·h/mL
- log2FC [17]: 0.39
- Activity (Quadruplex DNA [18]): inactive
- Activity (MIA PaCa-2 [19]): -82.2%
- inhibition (MIA PaCa-2 [20]): Active
- Activity (Mus musculus [21]): inactive
- Activity [22]: Non-Toxic
- clearance [23]: 2.2 mL/min/kg
- Activity (MIA PaCa-2 [24]): -86.6%
- GI50 (PANC-1 [25]): 1.4 nM
- log2FC [26]: 0.57
- log2FC [27]: 0.71
- AUC [28]: 5860 ng·h/mL
- Activity [29]: Non-Toxic
- Activity (Quadruplex DNA [30]): inactive
- log2FC [31]: 0.58
- Activity [32]: Non-Toxic
- log2FC [33]: 1.75
- log2FC [34]: 2.29
- half-life [35]: 37 h
- log2FC [36]: 1.02
